Read-outs that look alike come from different tables or passages of the source.

The target of assay [1] is RIPK1 (Homo sapiens (Human), UniProt Q13546). The experiment in a line: biochemical. The format is biochemical. The protocol: In this example, compounds of the disclosure were evaluated using a biochemical assay using the ADP-Glo™ technology.
ADP-Glo™ (Promega, Madison, Wis., USA) reagents were thawed at ambient temperature. Kinase Detection Reagent was prepared by mixing kinase detection buffer with the lyophilized kinase detection substrate.
A […] stock volume of 5× Reaction Kinase Buffer was made by mixing 1000 μl of 1M MgCl2, 500 μl of 1M Tris-HCL pH7.4, 0.5 mg/ml (25 mg) of BSA, and 3475 μl of distilled H2O. A 3 ml 2× working stock volume of Reaction Kinase Buffer was made containing a final concentration of 100 μM DTT and 4 mM MnCl2.
Components of RIPK1 enzyme (Rigel Pharmaceuticals, South San Francisco, Calif., USA) were thawed on ice. Diluted RIPK1 was prepared in 1× Kinase Reaction Buffer (diluted from 2× buffer) to 31 ng/well.
1.0 ul of diluted compound was added to a 384 well plate in duplicate. […] The final reaction volume was 5.0 μl. The plate was quickly centrifuged and the reaction was incubated at 30° C. for 30 minutes. Adding 5 μl of ADP-Glo™ terminated the reaction. The plate was quickly centrifuged and the reaction was incubated at room temperature for 40 minutes. Kinase Detection Reagent was then added and incubated at room temperature for 30 minutes. The relative light unit (RLU) of kinase reaction was determined by luminescent (Luminescence 0.1 s) using a Wallac Victor2 Luminometer (PerkinElmer, Waltham, Mass., USA).

For assay [2], the system named is L929 cells. The experiment in a line: L929 cell necroptosis assay (TNFa + zVAD, CellTiter-Glo recovery), functional murine RIP1 assay. The format is cell-based. To be noted: Mus musculus, L929, 18 h, read-out: L929-CTG-recovery, L929, TNFa + zVAD (IC50), L929 cells, zVAD-fmk, TNFa 2 ng/mL, 18 hours, CellTiter-Glo. The method, then: (§1) In this example, U937 and L929 cells were exposed to compounds of the present disclosure and a cell necroptosis assay was conducted to evaluate compound activity in functional human RIP1 and murine RIP1 assays.
(§2) U937 and L929 cells were obtained from the American Type Culture Collection (Manassa, Va., USA). Both cells were maintained in logarithmic growth phase in complete RPMI 1640 media (Sigma, ST Louis, Mo., USA) supplemented with 10% fetal bovine serum (Sigma, ST Louis, Mo., USA) at 37° C. with 5% CO2. For necroptosis assay, L929 cells were plated for 18 h in 100 μL/well medium at 10K cells/well in Costar 96-well black clear-bottom plates (Fisher Scientific, Hampton, N.H., USA); U937 cells were plated on the day of the assay in 50 μL/well medium containing 60 uM zVAD-fmk (Lonza, Basel, Switzerland) at 50K cells/well. Medium from L929 cells were removed from the 96-well plates and replaced with 50 μL/well new medium containing 40 uM zVAD-fmk. Each compound of the present disclosure evaluated in this example was serially diluted in DMSO from 2.5 mM in 4-fold dilutions, and then diluted 1:125 in complete medium. 50 μL/well 2× of the compound was then added to the cells in the plates. The cells were pre-incubated with the compound for 1 hour at 37° C. with 5% CO2 and before addition of 10 μL/well 11×TNFa (Peprotech, Rocky Hill, N.J., USA) to give a final concentration of 2 ng/mL for TNFa. The relative amount of necroptosis cells was determined by luminescent using a Wallac Victor2 Luminometer (PerkinElmer, Waltham, Mass., USA) and a CellTiter-Glo® Luminescent Cell Viability Reagent Assay (Promega, Madison, Wis., USA) added per manufacturer instructions after 18 hours of TNFa stimulation at 37° C. with 5% CO2. This example establishes that embodiments of the compounds described herein have unexpectedly potent activity against human RIP1 and murine RIP1, which allows their assessment in in vivo mouse models of disease.

Assay [3] concerns U937 cells. The experiment in a line: U937 cell necroptosis assay (TNFa + zVAD, CellTiter-Glo recovery), functional human RIP1 assay. The format is cell-based. The settings on record: Homo sapiens, U-937, 18 h, read-out: U937 Zvad TNF CTG Recovery, U937, TNFa + zVAD (IC50), U937 cells, zVAD-fmk, TNFa 2 ng/mL, 18 hours, CellTiter-Glo. The protocol: as §1, §2
Where [4] appears, read: RIPK1 enzyme 31 ng/well, 30° C. for 30 minutes, luminescence, read-out: RIPK1 ADP-Glo Kinase (IC50).

Chain of RIPK1 (Q13546 whole entry, species assumed): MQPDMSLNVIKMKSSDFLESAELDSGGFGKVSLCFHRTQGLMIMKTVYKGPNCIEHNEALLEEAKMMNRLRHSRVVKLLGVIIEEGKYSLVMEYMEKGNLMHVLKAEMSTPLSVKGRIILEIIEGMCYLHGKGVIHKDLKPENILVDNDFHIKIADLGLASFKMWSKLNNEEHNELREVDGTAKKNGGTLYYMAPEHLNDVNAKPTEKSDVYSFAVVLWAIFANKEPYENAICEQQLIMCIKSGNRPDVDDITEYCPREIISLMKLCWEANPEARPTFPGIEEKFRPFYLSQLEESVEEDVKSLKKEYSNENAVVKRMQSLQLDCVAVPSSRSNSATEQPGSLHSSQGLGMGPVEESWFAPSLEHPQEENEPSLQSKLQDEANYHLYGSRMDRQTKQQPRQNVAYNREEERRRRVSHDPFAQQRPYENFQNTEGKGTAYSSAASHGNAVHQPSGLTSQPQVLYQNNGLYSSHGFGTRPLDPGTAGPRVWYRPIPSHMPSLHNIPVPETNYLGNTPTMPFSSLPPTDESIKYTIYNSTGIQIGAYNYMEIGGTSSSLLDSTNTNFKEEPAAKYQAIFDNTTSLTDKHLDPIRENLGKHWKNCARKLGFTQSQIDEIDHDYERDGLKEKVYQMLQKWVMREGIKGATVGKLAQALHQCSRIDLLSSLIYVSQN

For the molecule `O=C(NC1CCc2ccccc2-n2ccnc21)c1n[nH]c(Cc2c(Cl)cccc2Cl)n1` (racemic) [Compound I-19, (±)-5-(2,6-Dichlorobenzyl)-N-(5,6-dihydro-4H-benzo[f]imidazo[1,2-a]azepin-4-yl)-1H-1,2,4-triazole-3-carboxamide], the IC50 in assay [1] (setting [4]) amounted to 393 nM; in assay [2] it was 10000 µM; in assay [3] it was 960 nM.
On the same counts, the results for `O=C(NC1COc2ccccc2-n2cccc21)c1ncn(Cc2c(Cl)cccc2Cl)n1` (racemic) [Compound I-27, (±)-1-(2,6-Dichlorobenzyl)-N-(6,7-dihydrobenzo[b]pyrrolo[1,2-d][1,4]oxazepin-7-yl)-1H-1,2,4-triazole-3-carboxamide] are 68.4 nM, 5.55 µM and 34 nM.
As to `O=C(NC1CSc2cccn2-n2ccnc21)c1ncn(Cc2c(Cl)cccc2Cl)n1` (racemic) [Compound I-29, (±)-1-(2,6-Dichlorobenzyl)-N-(4,5-dihydroimidazo[1,2-d]pyrrolo[2,1-b][1,3,4]thiadiazepin-4-yl)-1H-1,2,4-triazole-3-carboxamide], the IC50 was found to be 9.8 nM in assay [1], 0.195 µM in assay [2] and 1.1 nM in assay [3].
For the molecule `O=C(NC1COc2ccccc2-n2cccc21)c1n[nH]c(Cc2ccccc2)n1` (racemic) [Compound I-34, (±)-5-Benzyl-N-(6,7-dihydrobenzo[b]pyrrolo[1,2-d][1,4]oxazepin-7-yl)-1H-1,2,4-triazole-3-carboxamide], the IC50 in assay [1] (setting [4]) was 139 nM; in assay [2] it was 10000 µM; in assay [3], 1540 nM.
As for `Cc1cn2c(n1)C(NC(=O)c1ncn(Cc3c(Cl)cccc3Cl)n1)CCc1ccccc1-2` (racemic) [Compound I-35, (±)-1-(2,6-Dichlorobenzyl)-N-(2-methyl-5,6-dihydro-4H-benzo[f]imidazo[1,2-a]azepin-4-yl)-1H-1,2,4-triazole-3-carboxamide], the IC50 in assay [1] (setting [4]) is 2080 nM; in assay [2] it was 10000 µM; in assay [3] it was 2680 nM.
Regarding `O=C(NC1CCc2ccccc2-n2c1n[nH]c2=O)c1ncn(Cc2c(Cl)cccc2Cl)n1` (racemic) [Compound I-36, (±)-1-(2,6-Dichlorobenzyl)-N-(1-oxo-2,4,5,6-tetrahydro-1H-benzo[f][1,2,4]triazolo[4,3-a]azepin-4-yl)-1H-1,2,4-triazole-3-carboxamide], the IC50 in assay [1] (setting [4]) is 2800 nM; in assay [2] it was 16.1 µM; in assay [3] it was 714 nM.
In the same order, the values of `O=C(NC1COc2ccccc2-n2cccc21)c1n[nH]c(Cc2ccc(F)cc2)n1` (racemic) [Compound I-37, (±)-N-(6,7-Dihydrobenzo[b]pyrrolo[1,2-d][1,4]oxazepin-7-yl)-5-(4-fluorobenzyl)-1H-1,2,4-triazole-3-carboxamide] are 1140 nM, 10000 µM and 4070 nM.
On the same counts, the results for `O=C(NC1COc2ccccc2-n2cccc21)c1ncn(Cc2ccccc2F)n1` (racemic) [Compound I-38, (±)-N-(6,7-Dihydrobenzo[b]pyrrolo[1,2-d][1,4]oxazepin-7-yl)-1-(2-fluorobenzyl)-1H-1,2,4-triazole-3-carboxamide] are 22.3 nM, 9.79 µM and 43.9 nM.
In the same order, the values of `O=C(NC1CCc2ccc(CN3CCN(c4ccncc4)CC3)cc2-n2ccnc21)c1n[nH]c(Cc2ccccc2)n1` (racemic) [Compound I-39, (±)-5-Benzyl-N-(9-((4-(pyridin-4-yl)piperazin-1-yl)methyl)-5,6-dihydro-4H-benzo[f]imidazo[1,2-a]azepin-4-yl)-1H-1,2,4-triazole-3-carboxamide] are 1460 nM, 50.9 µM and 1380 nM.
For the molecule `Cc1cnc2n1-c1ccccc1CCC2NC(=O)c1ncn(Cc2c(Cl)cccc2Cl)n1` (racemic) [Compound I-44, (±)-1-(2,6-Dichlorobenzyl)-N-(1-methyl-5,6-dihydro-4H-benzo[f]imidazo[1,2-a]azepin-4-yl)-1H-1,2,4-triazole-3-carboxamide], the figures for the IC50 in assay [1] (setting [4]), in assay [2] and in assay [3] were 947 nM, 10000 µM and 1660 nM, respectively.
Consider `O=C(NC1CSc2cccn2-n2ccnc21)c1n[nH]c(Cc2ccccc2)n1` (racemic) [Compound I-45, (±)-5-Benzyl-N-(4,5-dihydroimidazo[1,2-d]pyrrolo[2,1-b][1,3,4]thiadiazepin-4-yl)-1H-1,2,4-triazole-3-carboxamide], for which the figures for the IC50 in assay [1] (setting [4]), in assay [2] and in assay [3] were 31.2 nM, 10.5 µM and 36.4 nM, respectively.
With `O=C(NC1CCc2ccc(CN3CCN(c4ccncc4)CC3)cc2-n2ccnc21)c1ncn(Cc2c(Cl)cccc2Cl)n1` (racemic) [Compound I-47, (±)-1-(2,6-Dichlorobenzyl)-N-(9-((4-(pyridin-4-yl)piperazin-1-yl)methyl)-5,6-dihydro-4H-benzo[f]imidazo[1,2-a]azepin-4-yl)-1H-1,2,4-triazole-3-carboxamide], the IC50 in assay [1] (setting [4]) was 87.3 nM; in assay [2], 9.5 µM; in assay [3], 25.7 nM.
In the same order, the values of `O=C(NC1CCc2ccccc2-n2c1noc2=O)c1n[nH]c(Cc2ccccc2)n1` (racemic) [Compound I-48, (±)-5-Benzyl-N-(1-oxo-5,6-dihydro-1H,4H-benzo[f][1,2,4]oxadiazolo[4,3-a]azepin-4-yl)-1H-1,2,4-triazole-3-carboxamide] are 53.4 nM, 10000 µM and 40.8 nM.
On the same counts, the results for `O=C(NC1CCc2ccccc2-n2ccnc21)c1cc(Oc2ccccc2)ccn1` (racemic) [Compound I-51, (±)-N-(5,6-Dihydro-4H-benzo[f]imidazo[1,2-a]azepin-4-yl)-4-phenoxypicolinamide] are 49.2 nM, 17.1 µM and 125 nM.
On the same counts, the results for `O=C(NC1CCc2ccccc2-n2c1noc2=O)c1cc(Oc2ccccc2)ccn1` (racemic) [Compound I-52, (±)-N-(1-Oxo-5,6-dihydro-1H,4H-benzo[f][1,2,4]oxadiazolo[4,3-a]azepin-4-yl)-4-phenoxypicolinamide] are 32.5 nM, 20.8 µM and 64.7 nM.
Regarding `O=C(NC1COc2ccccc2-n2cccc21)c1cc(Oc2ccccc2)ccn1` (racemic) [Compound I-54, (±)-N-(6,7-Dihydrobenzo[b]pyrrolo[1,2-d][1,4]oxazepin-7-yl)-4-phenoxypicolinamide], the IC50 worked out at 582 nM in assay [1] (setting [4]), 10000 µM in assay [2] and 1240 nM in assay [3].
On the same counts, the results for `CC(C)(O)C#Cc1ccc2c(c1)-n1ccnc1C(NC(=O)c1cc(Oc3ccccc3)ccn1)CC2` (racemic) [Compound I-56, (±)-N-(9-(3-Hydroxy-3-methylbut-1-yn-1-yl)-5,6-dihydro-477-benzo[f]imidazo[1,2-a]azepin-4-yl)-4-phenoxypicolinamide] are 56.1 nM, 5.09 µM and 34.5 nM.
In the same order, the values of `O=C(NC1CCc2ccccc2-n2cnnc21)c1n[nH]c(Cc2ccccc2)n1` (racemic) [Compound I-57, (±)-5-Benzyl-N-(5,6-dihydro-4H-benzo[f][1,2,4]triazolo[4,3-a]azepin-4-yl)-1H-1,2,4-triazole-3-carboxamide] are 663 nM, 10000 µM and 3650 nM.

These data come from patent publication US11667643B2, “RIP1K inhibitors” (priority 2020, dated 2023).
